Two molecules from ChEMBL document CHEMBL5532651, “HDAC specificity and kinase off-targeting by purine-benzohydroxamate anti-hematological tumor agents” (Eur J Med Chem, 2024) can be followed below.

Calls of active or inactive are those of the source. Some results are limits rather than exact numbers.

By inhibition is commonly meant the percentage by which the read-out fell short of the control. By IC50 is commonly meant the concentration needed to halve the response being measured. In general, half-life refers to the time needed for the level to fall by half in the phase considered.

The nature of series [1]: Selectivity index, ratio of IC50 for human HS5 cells to IC50 for human Jurkat cells. The format is functional.
The subject of series [2] is NAMALVA. The experiment in a line: Inhibition of cell proliferation of human NAMALVA cells assessed as reduction in Ki-67 expression at IC50 measured after 48 hrs by flow cytometry. The format is functional, cell-based.
The target in series [3] is T1, Protein deacetylase HDAC6 (Homo sapiens, UniProt Q9UBN7).
T1 sequence (Q9UBN7 whole entry): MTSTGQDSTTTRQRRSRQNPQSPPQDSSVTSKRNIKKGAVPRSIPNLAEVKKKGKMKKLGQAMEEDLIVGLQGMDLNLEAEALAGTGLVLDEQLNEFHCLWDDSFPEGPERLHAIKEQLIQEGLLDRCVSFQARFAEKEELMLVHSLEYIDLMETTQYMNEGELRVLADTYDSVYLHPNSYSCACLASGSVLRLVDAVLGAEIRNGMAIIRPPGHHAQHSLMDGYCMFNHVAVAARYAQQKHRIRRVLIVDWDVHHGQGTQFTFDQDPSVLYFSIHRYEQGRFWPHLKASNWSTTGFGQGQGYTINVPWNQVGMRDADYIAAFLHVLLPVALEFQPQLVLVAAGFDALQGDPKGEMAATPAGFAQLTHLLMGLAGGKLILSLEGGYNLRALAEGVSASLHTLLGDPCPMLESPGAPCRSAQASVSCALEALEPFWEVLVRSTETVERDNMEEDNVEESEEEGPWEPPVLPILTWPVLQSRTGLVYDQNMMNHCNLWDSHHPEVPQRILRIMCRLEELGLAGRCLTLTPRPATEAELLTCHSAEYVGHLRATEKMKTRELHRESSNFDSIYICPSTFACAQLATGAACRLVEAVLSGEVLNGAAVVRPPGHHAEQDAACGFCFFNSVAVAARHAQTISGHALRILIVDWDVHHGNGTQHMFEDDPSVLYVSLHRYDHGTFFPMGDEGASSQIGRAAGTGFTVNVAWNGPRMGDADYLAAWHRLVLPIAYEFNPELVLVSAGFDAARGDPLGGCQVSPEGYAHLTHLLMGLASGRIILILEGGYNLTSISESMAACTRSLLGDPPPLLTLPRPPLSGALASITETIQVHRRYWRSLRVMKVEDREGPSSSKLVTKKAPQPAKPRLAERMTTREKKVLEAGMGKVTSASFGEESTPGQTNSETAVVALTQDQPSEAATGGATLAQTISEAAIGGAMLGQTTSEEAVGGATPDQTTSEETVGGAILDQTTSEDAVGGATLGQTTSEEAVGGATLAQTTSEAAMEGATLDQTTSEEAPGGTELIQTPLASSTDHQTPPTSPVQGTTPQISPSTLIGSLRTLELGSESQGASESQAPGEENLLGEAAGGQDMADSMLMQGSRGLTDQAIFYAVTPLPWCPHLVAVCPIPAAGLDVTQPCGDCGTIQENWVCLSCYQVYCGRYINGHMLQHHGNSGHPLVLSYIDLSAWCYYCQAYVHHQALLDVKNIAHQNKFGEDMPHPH
Nature of the series: Inhibition of full-length recombinant human HDAC6 expressed in baculovirus infected Sf9 cells using RHKK(Ac)AMC as substrate preincubated for 5 to 10 mins followed by substrate addition measured after 2 hrs by fluorescence based assay.

Series [4] has as its system NAMALVA. The experiment in a line: Induction of apoptosis in human NAMALVA cells at IC50 measured after 48 hrs by flow cytometry. Type of series: functional, cell-based.
For series [5], the system named is NAMALVA. Nature of the series: Potency index, ratio of Vorinostat IC50 to test compound IC50 for human NAMALVA cells assessed as cell growth inhibition incubated for 24 to 72 hrs by MTT assay. The format is functional. The settings on record: time 24-72 hrs. (Tetrazolium assays rely on reduction of a dye to a coloured formazan, in cell work by metabolically active cells.)

In a further series the target is T2, CYP1A2 (Homo sapiens, UniProt P05177).
T2 sequence (P05177 whole entry): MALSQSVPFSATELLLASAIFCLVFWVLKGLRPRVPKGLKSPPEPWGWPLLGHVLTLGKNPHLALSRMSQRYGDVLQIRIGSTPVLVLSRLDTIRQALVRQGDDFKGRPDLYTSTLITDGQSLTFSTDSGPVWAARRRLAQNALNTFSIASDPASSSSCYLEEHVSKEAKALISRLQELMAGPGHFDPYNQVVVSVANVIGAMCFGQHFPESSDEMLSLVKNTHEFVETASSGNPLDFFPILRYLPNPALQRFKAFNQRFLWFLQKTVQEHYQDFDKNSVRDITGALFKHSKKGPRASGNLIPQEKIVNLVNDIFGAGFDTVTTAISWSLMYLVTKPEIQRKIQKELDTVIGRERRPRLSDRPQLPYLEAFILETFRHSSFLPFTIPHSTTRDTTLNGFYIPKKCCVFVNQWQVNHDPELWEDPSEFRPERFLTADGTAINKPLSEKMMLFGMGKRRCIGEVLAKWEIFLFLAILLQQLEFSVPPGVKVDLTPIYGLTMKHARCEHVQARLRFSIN
Nature of the series: Inhibition of CYP1A2 in liver microsomes (unknown origin) at 10 uM incubated for 10 mins relative to control. The format is ADME, Microsome. (Liver microsomes are vesicles of endoplasmic reticulum, rich in cytochrome P450 enzymes.)

The target in series [6] is Cyclin-dependent kinase 4 (Homo sapiens) (UniProt P11802). The experiment in a line: Inhibition of CDK4 (unknown origin) at 100 uM preincubated for 20 mins followed by 33P-ATP addition measured after 2 hrs by HotSpot kinase assay relative to control. Conditions: time 140.0 min.
Series [7] is described as follows: Selectivity index, ratio of IC50 for human MCF7 cells to IC50 for human NAMALVA cells. The format is functional.
The target of series [8] is T3, Histone deacetylase 1 (Homo sapiens, UniProt Q13547). The experiment in a line: Inhibition of HDAC1 in human NAMALVA cells assessed as increase in acetyl-alpha-tubulin level at IC50 incubated for 48 hrs by Western blot analysis. Type of series: cell-based.
The target of series [9] is T4, Protein deacetylase HDAC6 (Homo sapiens) (UniProt Q9UBN7).
T4 sequence (whole entry): T1 sequence (Q9UBN7 whole entry)
The experiment in a line: Inhibition of HDAC6 in human U-937 cells assessed as increase in acetyl-histone H3 level at IC50 incubated for 48 hrs by Western blot analysis. The format is cell-based. For orientation: In western blotting, separated proteins are transferred to a membrane and probed.

Series [10] has as its target T3, Histone deacetylase 1. Nature of the series: Inhibition of HDAC1 in human Jurkat cells assessed as increase in acetyl-alpha-tubulin level at IC50 incubated for 48 hrs by Western blot analysis. Type of series: cell-based.
A further series concerns U-937. Nature of the series: Cytotoxicity against human U-937 cells assessed as cell growth inhibition incubated for 24 to 72 hrs by MTT assay. The format is functional, cell-based. The settings on record: time lower 24.0 hrs, time upper […].
In series [11] the target is Tyrosine-protein kinase JAK1 (Homo sapiens) (UniProt P23458). The experiment in a line: Inhibition of JAK1 (unknown origin) at 100 uM preincubated for 20 mins followed by 33P-ATP addition measured after 2 hrs by HotSpot kinase assay relative to control. The settings on record: time 140.0 min.
In another series the test system is MCF7. The experiment in a line: cells. Type of series: functional, cell-based. Conditions: Homo sapiens.
Series [12] can be described thus: Stability in mouse liver microsome assessed as half life at 1 uM measured for 60 mins by LC-MS/MS analysis. The format is ADME. Conditions: liver microsomes.
For series [13], the target named is Tyrosine-protein kinase JAK3 (Homo sapiens, UniProt P52333). The experiment in a line: Inhibition of recombinant human JAK3 (781 to 1124 residues) in presence of ATP by ELISA.
The subject of series [14] is Jurkat. The experiment in a line: cells. Conditions: Homo sapiens.
Series [15] concerns Jurkat. The experiment in a line: Induction of apoptosis in human Jurkat cells at IC50 measured after 48 hrs by flow cytometry. The format is functional, cell-based.

T3 sequence (Q13547 whole entry): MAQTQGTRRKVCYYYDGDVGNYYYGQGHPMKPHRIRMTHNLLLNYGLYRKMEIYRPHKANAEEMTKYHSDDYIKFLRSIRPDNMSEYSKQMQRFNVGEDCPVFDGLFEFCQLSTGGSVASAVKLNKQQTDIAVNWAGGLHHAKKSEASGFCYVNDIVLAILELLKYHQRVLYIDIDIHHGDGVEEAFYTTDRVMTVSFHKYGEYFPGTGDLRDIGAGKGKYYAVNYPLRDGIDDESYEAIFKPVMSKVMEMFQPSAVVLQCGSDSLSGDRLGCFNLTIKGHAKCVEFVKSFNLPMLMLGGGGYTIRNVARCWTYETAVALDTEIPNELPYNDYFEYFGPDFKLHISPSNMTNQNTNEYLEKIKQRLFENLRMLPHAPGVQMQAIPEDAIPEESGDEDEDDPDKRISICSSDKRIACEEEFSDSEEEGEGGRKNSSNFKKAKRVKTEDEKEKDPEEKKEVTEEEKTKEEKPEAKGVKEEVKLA
Sequence of Tyrosine-protein kinase JAK3 (P52333 whole entry, the tested form may be a part): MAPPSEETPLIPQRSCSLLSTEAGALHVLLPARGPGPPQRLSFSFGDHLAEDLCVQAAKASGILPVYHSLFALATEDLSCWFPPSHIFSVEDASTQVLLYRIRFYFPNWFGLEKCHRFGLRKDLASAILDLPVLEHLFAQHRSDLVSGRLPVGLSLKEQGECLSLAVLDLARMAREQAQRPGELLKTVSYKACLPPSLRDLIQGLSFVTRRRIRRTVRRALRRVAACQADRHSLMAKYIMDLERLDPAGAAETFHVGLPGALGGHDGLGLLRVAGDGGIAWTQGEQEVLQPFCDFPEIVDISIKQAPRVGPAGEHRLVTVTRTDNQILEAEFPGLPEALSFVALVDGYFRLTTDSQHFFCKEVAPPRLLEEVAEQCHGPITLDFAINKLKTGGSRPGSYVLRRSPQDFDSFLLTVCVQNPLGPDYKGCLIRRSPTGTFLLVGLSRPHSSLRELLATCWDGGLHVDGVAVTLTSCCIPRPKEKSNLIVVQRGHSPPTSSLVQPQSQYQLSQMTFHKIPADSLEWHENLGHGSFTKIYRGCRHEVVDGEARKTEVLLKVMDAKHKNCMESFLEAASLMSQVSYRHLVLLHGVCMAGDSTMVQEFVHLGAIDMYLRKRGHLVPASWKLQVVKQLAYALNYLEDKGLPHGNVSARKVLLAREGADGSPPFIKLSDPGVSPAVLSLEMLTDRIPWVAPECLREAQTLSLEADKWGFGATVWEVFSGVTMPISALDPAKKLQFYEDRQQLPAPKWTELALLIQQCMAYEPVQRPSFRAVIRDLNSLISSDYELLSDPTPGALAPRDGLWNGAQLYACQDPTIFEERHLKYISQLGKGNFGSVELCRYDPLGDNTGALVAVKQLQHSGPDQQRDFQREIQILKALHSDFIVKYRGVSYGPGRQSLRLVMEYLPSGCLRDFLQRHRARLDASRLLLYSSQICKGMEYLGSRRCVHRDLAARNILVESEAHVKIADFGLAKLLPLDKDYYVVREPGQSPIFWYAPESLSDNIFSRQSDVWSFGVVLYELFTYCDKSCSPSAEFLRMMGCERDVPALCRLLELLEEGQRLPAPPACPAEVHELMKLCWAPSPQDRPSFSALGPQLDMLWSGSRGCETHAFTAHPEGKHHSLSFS
Sequence of Tyrosine-protein kinase JAK1 (Homo sapiens) (P23458 whole entry): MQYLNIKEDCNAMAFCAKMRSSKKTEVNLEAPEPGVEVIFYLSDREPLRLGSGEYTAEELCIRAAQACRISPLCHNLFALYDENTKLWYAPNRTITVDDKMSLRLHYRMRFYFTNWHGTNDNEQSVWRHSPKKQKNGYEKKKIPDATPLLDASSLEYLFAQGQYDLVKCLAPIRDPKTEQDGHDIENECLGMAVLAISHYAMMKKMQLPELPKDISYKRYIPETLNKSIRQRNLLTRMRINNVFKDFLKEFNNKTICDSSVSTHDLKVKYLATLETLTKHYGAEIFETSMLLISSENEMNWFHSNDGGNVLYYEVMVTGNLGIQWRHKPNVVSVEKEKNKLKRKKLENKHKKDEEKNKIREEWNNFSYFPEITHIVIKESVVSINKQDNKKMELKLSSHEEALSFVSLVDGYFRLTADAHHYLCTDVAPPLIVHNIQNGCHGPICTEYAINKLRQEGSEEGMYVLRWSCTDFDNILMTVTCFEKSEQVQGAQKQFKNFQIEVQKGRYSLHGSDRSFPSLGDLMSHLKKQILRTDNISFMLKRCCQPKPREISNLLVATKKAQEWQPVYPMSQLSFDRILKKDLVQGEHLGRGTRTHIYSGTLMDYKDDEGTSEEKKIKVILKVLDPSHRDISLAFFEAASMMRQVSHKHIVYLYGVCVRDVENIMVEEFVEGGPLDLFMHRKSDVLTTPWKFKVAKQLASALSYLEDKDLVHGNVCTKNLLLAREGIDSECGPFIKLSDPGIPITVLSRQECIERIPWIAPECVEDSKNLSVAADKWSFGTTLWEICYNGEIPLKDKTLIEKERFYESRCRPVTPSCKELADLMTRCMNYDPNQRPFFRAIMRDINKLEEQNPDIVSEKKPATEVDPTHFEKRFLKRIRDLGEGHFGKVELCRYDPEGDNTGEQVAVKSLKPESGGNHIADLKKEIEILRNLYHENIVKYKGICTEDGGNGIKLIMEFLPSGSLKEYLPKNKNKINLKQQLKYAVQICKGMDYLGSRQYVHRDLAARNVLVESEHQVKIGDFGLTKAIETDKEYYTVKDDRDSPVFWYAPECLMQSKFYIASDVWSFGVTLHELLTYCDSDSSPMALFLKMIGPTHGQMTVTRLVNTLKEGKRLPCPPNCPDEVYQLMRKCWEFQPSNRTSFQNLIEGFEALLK
Sequence of Cyclin-dependent kinase 4 (Homo sapiens) (P11802 whole entry): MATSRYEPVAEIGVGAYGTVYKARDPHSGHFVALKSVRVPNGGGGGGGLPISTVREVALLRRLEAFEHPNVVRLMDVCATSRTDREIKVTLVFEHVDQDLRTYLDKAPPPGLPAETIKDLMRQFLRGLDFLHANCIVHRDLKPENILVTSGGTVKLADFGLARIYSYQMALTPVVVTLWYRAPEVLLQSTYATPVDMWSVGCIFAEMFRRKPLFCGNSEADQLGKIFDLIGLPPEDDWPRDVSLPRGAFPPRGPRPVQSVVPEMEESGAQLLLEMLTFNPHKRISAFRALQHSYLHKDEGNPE

Consider `O=C(NO)c1ccc(Cn2cnc3c(Nc4ccc(F)c(Cl)c4)ncnc32)cc1`, for which the “Ratio IC50” value in series [1] is on record as “>=100”; with NAMALVA [5], “<=10”; in series [7], 83. Also, the inhibition result (in the series with NAMALVA [2]; at Histone deacetylase 1 [8]; in [9]; on Histone deacetylase 1 [10]) was “Active” throughout. The IC50 amounted to 341 nM in series [3], 9300 nM in the series with MCF7, 2590 nM in series [13] and 20 nM in the series with Jurkat [14]. For the same molecule, the outcome with NAMALVA [4] was Active. The molecule further yielded an inhibition at 10 min, 10 µM at CYP1A2 of 46%. Further, the inhibition is 73.2% in [6], “Dose-Dependent Effect” with U-937 and 63.2% in series [11]. For the same molecule, the half-life at 1 µM in [12] turned out to be 35 min.

For `COc1ccc(Nc2ncnc3c2ncn3Cc2ccc(C(=O)NO)cc2)cc1`, the “Ratio IC50” value in series [1] was “>=100”; in the series on NAMALVA [5], “<=10”; in [7], 83. In addition, the inhibition entry (in the series with NAMALVA [2]; at Histone deacetylase 1 [8]; in series [9]; at Histone deacetylase 1 [10]) was “Active” each time. For the same molecule, the results for the IC50 (in series [3]; in the series with MCF7; with Jurkat [14]) were 232 nM, 19500 nM and 50 nM, respectively. The outcome in the series with NAMALVA [4] and in the series with Jurkat [15] was Active. The molecule also registered an inhibition at 10 min, 10 µM against CYP1A2 of 50%. In addition, the inhibition result with U-937 is “Dose-Dependent Effect”. In [12], the half-life at 1 µM turned out to be 50 min.
